{
  "source": "ChEMBL document CHEMBL4028804",
  "about": "“The Necessary Nitrogen Atom: A Versatile High-Impact Design Element for Multiparameter Optimization” (J Med Chem, 2017)",
  "key": {"[1]": {"target": "T1, Mu-type opioid receptor (Homo sapiens, UniProt P35372)", "T1 sequence (P35372 whole entry)": "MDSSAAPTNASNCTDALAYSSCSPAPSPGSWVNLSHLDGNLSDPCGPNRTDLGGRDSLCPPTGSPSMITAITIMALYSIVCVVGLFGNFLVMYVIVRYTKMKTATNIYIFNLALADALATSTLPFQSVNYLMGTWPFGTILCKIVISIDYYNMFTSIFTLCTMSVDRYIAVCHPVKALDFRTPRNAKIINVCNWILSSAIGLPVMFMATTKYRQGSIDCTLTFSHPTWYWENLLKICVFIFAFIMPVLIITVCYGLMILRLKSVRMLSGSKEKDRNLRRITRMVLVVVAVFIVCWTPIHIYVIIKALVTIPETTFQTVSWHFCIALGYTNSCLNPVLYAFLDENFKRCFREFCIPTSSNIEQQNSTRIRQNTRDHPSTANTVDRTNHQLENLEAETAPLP", "test": "Agonist activity at human mu-opioid receptor expressed in HEK293 cells coexpressing delta6-Galphaqi4-myr assessed as induction of intracellular calcium flux after 48 hrs by FLIPR assay", "assay_type": "functional, cell-based"}, "[2]": {"target": "T1, Mu-type opioid receptor", "test": "Displacement of [3H]-DAMGO from human HA-tagged mu-opioid receptor expressed in HEK293 cells after 90 mins by liquid scintillation counting analysis", "assay_type": "cell-based"}, "[3]": {"target": "T1, Mu-type opioid receptor", "test": "Agonist activity at human mu-opioid receptor expressed in HEK293 cell membranes after 1 hr by [35S]-GTPgammaS binding assay", "assay_type": "functional"}},
  "data": [
    {"smiles": "O=C(N[C@@H]1CC[C@@]2(O)[C@H]3Cc4ccc(O)c5c4[C@@]2(CCN3CC2CC2)[C@H]1O5)c1ccc2ccccc2c1", "values": [
      {"measurement": "EC50", "setting": "[1]", "value": "> 1000", "unit": "nM"},
      {"measurement": "Ki", "setting": "[2]", "value": 0.0013, "unit": "nM"},
      {"measurement": "EC50", "setting": "[3]", "value": 0.3, "unit": "nM"}
    ]}
  ]
}
